Experimental data from US7456165B2, “HCV NS5B inhibitors” (Bristol-Myers Squibb Company, priority 2006, dated 2008).
Like-named read-outs stand apart in the source and are kept apart here.

How the values were obtained:
[1] = test system: HCV replicon cells; experiment: HCV replicon FRET assay; assay type: cell-based
Source text: FRET Assay Preparation. To perform the HCV FRET screening assay, 96-well cell culture plates were used. The FRET peptide (Anaspec, Inc.) (Taliani et al., Anal Biochem. 1996, 240, 60-67) contains a fluorescence donor, EDANS, near one end of the peptide and an acceptor, DABCYL, near the other end. The fluorescence of the peptide is quenched by […] resonance energy transfer (RET) between the donor and the acceptor, but as the NS3 protease cleaves the peptide the products are released from RET quenching and the fluorescence of the donor becomes apparent. The assay reagent was made as follows: 5× cell Luciferase cell culture lysis reagent from Promega (#E153A) diluted to 1× with dH2O, NaCl added to 150 mM final, the FRET peptide diluted to 20 μM final from a 2 mM stock.
To prepare plates, HCV replicon cells, with or without a Renilla luciferase reporter gene, were trypsinized and placed into each well of a 96-well plate with titrated test compounds added in columns 3 through 12; columns 1 and 2 contained a control compound (HCV protease inhibitor), and the bottom row contained cells without compound. The plates were then placed in a CO2 incubator at 37° C.
Assays. Subsequent to addition of the test compounds described above (FRET Assay Preparation), at various times the plate was removed and Alamar blue solution (Trek Diagnostics, #00-100) was added per well as a measure of cellular toxicity. After reading in a Cytoflour 4000 instrument (PE Biosystems), plates were rinsed with PBS and then used for FRET assay by the addition of 30 ul of the FRET peptide assay reagent described above (FRET Assay Preparation) per well. The plate was then placed into the Cytoflour 4000 instrument which had been set to 340 excite/490 emission, automatic mode for 20 cycles and the plate read in a kinetic mode. Typically, the signal to noise using an endpoint analysis after the reads was at least three-fold. Alternatively, after Alamar blue reading, plates were rinsed with PBS, 50 ul of DMEM (high glucose) without phenol red was added and plates were then used for luciferase assay using the Promega Dual-Glo Luciferase Assay System.
Compound analysis was determined by quantification of the relative HCV replicon inhibition and the relative cytotoxicity values. To calculate cytoxicity values, the average Alamar Blue fluorescence signals from the control wells were set as 100% non-toxic. The individual signals in each of the compound test wells were then divided by the average control signal and multiplied by 100% to determine […]. To calculate the HCV replicon inhibition values, an average background value was obtained from the two wells containing the highest amount of HCV protease inhibitor at the end of the assay period. These numbers were similar to those obtained from naïve Huh-7 cells.
The background numbers were then subtracted from the average signal obtained from the control wells and this number was used as 100% activity. The individual signals in each of the compound test wells were then divided by the averaged control values after background subtraction and multiplied by 100% to determine percent activity. EC50 values for a protease inhibitor titration were calculated as the concentration which caused a 50% reduction in FRET or luciferase activity. The two numbers generated for the compound plate, percent cytoxicity and percent activity were used to determine compounds of interest for further analysis.

[2] = target: T1, HCV NS5B (Hepatitis C virus genotype 1b, UniProt Q9WMX2); experiment: HCV NS5B RdRp enzyme assay (preincubation protocol); assay type: biochemical; conditions: HCV NS5B RdRp genotype 1b
T1 construct: The protein was expressed with an 18 amino acid C-terminal truncation to enhance the solubility; made in house; host or cells: E. coli BL21(DE3)
T1 sequence (Q9WMX2 2420-2992): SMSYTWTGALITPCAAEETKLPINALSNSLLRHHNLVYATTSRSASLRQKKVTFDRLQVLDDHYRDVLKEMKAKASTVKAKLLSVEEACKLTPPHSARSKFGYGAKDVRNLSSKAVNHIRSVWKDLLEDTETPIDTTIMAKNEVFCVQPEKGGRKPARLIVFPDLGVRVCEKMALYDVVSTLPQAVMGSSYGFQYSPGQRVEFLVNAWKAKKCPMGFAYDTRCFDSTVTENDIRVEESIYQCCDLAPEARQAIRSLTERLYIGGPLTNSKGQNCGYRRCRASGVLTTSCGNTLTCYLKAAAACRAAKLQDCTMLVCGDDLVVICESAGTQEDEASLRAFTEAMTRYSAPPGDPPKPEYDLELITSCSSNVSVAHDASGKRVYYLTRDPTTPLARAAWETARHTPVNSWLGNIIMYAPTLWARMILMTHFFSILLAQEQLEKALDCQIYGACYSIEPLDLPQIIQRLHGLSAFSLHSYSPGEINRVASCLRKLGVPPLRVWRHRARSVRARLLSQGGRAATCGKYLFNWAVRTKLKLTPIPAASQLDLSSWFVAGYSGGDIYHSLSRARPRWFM
Protocol: HCV NS5B RdRp cloning, expression, and purification. The cDNA encoding the NS5B protein of HCV, genotype 1b, was cloned into the pET21a expression vector. The protein was expressed with an 18 amino acid C-terminal truncation to enhance the solubility. The E. coli competent cell line BL21(DE3) was used for expression of the protein. Cultures were grown at 37° C. for ˜4 hours until the cultures reached an optical density of 2.0 at 600 nm. The cultures were cooled to 20° C. and induced with 1 mM IPTG. Fresh ampicillin was added to a final concentration of 50 μg/ml and the cells were grown overnight at 20° C.
Cell pellets (3 L) were lysed for purification to yield 15-24 mgs of purified NS5B. The lysis buffer consisted of 20 mM Tris-HCl, pH 7.4, 500 mM NaCl, 0.5% triton X-100, 1 mM DTT, 1 mM EDTA, 20% glycerol, 0.5 mg/ml lysozyme, 10 mM MgCl2, 15 ug/ml deoxyribonuclease I, and Complete TM protease inhibitor tablets (Roche). After addition of the lysis buffer, frozen cell pellets were resuspended using a tissue homogenizer. To reduce the viscosity of the sample, aliquots of the lysate were sonicated on ice using a microtip attached to a Branson sonicator. The sonicated lysate was centrifuged at 100,000×g for 1 hr at 4° C. and filtered through a 0.2 μm filter unit (Corning).
The protein was purified using three sequential chromatography steps: Heparin sepharose CL-6B, polyU sepharose 4B, and Hitrap SP sepharose (Pharmacia). The chromatography buffers were identical to the lysis buffer but contained no lysozyme, deoxyribonuclease I, MgCl2 or protease inhibitor and the NaCl concentration of the buffer was adjusted according to the requirements for charging the protein onto the column. Each column was eluted with a NaCl gradient which varied in length from 5-50 column volumes depending on the column type. After the final chromatography step, the resulting purity of the enzyme is >90% based on SDS-PAGE analysis. The enzyme was aliquoted and stored at −80° C.
Standard HCV NS5B RdRp enzyme assay. HCV RdRp genotype 1b assays were run in a final volume of 60 μl in 96 well plates (Costar 3912 H. The assay buffer is composed of 20 mM Hepes, pH 7.5, 2.5 mM KCl, 2.5 mM MgCl2, 1 mM DTT, 1.6 U RNAse inhibitor (Promega N2515), 0.1 mg/ml BSA (Promega R3961), and 2% glycerol. All compounds were serially diluted (3-fold) in DMSO and diluted further in water such that the final concentration of DMSO in the assay was 2%. HCV RdRp genotype 1b enzyme was used at a final concentration of 28 nM. A polyA template was used at 6 nM, and a biotinylated oligo-dT12 primer was used at 180 nM final concentration. Template was obtained commercially (Amersham 27-4110). Biotinylated primer was prepared by Sigma Genosys. 3H-UTP was used at 0.6 μCi (0.29 μM total UTP). Reactions were initiated by the addition of enzyme, incubated at 30° C. for 60 min, and stopped by adding 25 μl of 50 mM EDTA containing SPA beads (4 μg/μl, Amersham RPNQ 0007 H. Plates were read on a Packard Top Count NXT after >1 hr incubation at room temperature.
Modified HCV NS5B RdRp enzyme assay. A modified enzyme assay was performed essentially as described for the standard enzyme assay except for the following: The biotinylated oligo dT12 primer was precaptured on streptavidin-coated SPA beads by mixing primer and beads in assay buffer and incubating at room temperature for one hour. Unbound primer was removed after centrifugation. The primer-bound beads were resuspended in 20 mM Hepes buffer, pH 7.5 and used in the assay at final concentrations of 20 nM primer and 0.67 μg/μl beads. Order of addition in the assay: enzyme (14 nM) was added to diluted compound followed by the addition of a mixture of template (0.2 nM), 3H-UTP (0.6 μCi, 0.29 μM), and primer-bound beads, to initiate the reaction; concentrations given are final. Reactions were allowed to proceed for 4 hours at 30° C.
IC50 values for compounds were determined using seven different [I]. […]

SMILES	EC50 ([1]; Hepatitis C virus) [µM]	IC50 [2] [µM]	EC50 [1] [µM]
COc1ccc2c(c1)CC(c1ncc(CCC(=O)N3CCOCC3)o1)Cn1c-2c(C2CCCCC2)c2ccc(C(=O)O)cc21 (racemic) [Example 50, 13-Cyclohexyl-3-methoxy-6-(5-(3-(4-morpholinyl)-3-oxopropyl)-1,3-oxazol-2-yl)-6,7-dihydro-5H-indolo[2,1-a][2]benzazepine-10-carboxylic acid]	0.001 to 0.5	0.001 to 0.5	–
COc1ccc2c(c1)CC(c1ncc(CCC(=O)N3CCOCC3)o1)Cn1c-2c(C2CCCCC2)c2ccc(C(=O)O)cc21 (single isomer, unassigned) [Example 51, 13-Cyclohexyl-3-methoxy-6-(5-(3-(4-morpholinyl)-3-oxopropyl)-1,3-oxazol-2-yl)-6,7-dihydro-5H-indolo[2,1-a][2]benzazepine-10-carboxylic acid]	–	0.001 to 0.5	> 0.5
COc1ccc2c(c1)CC(c1ncc(CCC(=O)N3CCOCC3)o1)Cn1c-2c(C2CCCCC2)c2ccc(C(=O)O)cc21 (single isomer, unassigned) [Example 52, 13-Cyclohexyl-3-methoxy-6-(5-(3-(4-morpholinyl)-3-oxopropyl)-1,3-oxazol-2-yl)-6,7-dihydro-5H-indolo[2,1-a][2]benzazepine-10-carboxylic acid]	–	0.001 to 0.5	0.001 to 0.5
COc1ccc2c(c1)CC(c1ncc(CCC(=O)N3CCOCC3)o1)Cn1c-2c(C2CCCCC2)c2ccc(C(=O)NS(=O)(=O)N(C)C)cc21 (single isomer, unassigned) [Example 53, 13-Cyclohexyl-N-((dimethylamino)sulfonyl)-3-methoxy-6-(5-(3-(4-morpholinyl)-3-oxopropyl)-1,3-oxazol-2-yl)-6,7-dihydro-5H-indolo[2,1-a][2]benzazepine-10-carboxamide]	0.001 to 0.5	0.001 to 0.5	–
COc1ccc2c(c1)C[C@H](c1ncc(CCC(=O)N3CCOCC3)o1)Cn1c-2c(C2CCCCC2)c2ccc(C(=O)NS(=O)(=O)N(C)C)cc21 (single isomer, unassigned) [Example 54, 13-cyclohexyl-N-((dimethylamino)sulfonyl)-3-methoxy-6-(5-(3-(4-morpholinyl)-3-oxopropyl)-1,3-oxazol-2-yl)-6,7-dihydro-5H-indolo[2,1-a][2]benzazepine-10-carboxamide]	0.001 to 0.5	0.001 to 0.5	–
COC(=O)c1ccc2c(C3CCCCC3)c3n(c2c1)CC(c1nnn[nH]1)=Cc1ccccc1-3 [Example 1, 13-cyclohexyl-6-(1H-tetrazol-5-yl)-7H-indolo[2,1-a][2]benzazepine-10-carboxylic acid, methyl ester]	> 0.5	> 0.5	–
CCn1nnc(C2=Cn3c(c(C4CCCCC4)c4ccc(C(=O)O)cc43)-c3ccccc3C2)n1 [Example 2, 13-cyclohexyl-6-(2-ethyl-2H-tetrazol-5-yl)-5H-indolo[2,1-a][2]benzazepine-10-carboxylic acid]	> 0.5	0.001 to 0.5	–
CCn1nnc(C2=Cc3ccccc3-c3c(C4CCCCC4)c4ccc(C(=O)O)cc4n3C2)n1 [Example 3, 13-cyclohexyl-6-(2-ethyl-2H-tetrazol-5-yl)-7H-indolo[2,1-a][2]benzazepine-10-carboxylic acid]	> 0.5	0.001 to 0.5	–
CCn1nnc(C2=Cc3ccccc3-c3c(C4CCCCC4)c4ccc(C(=O)NS(=O)(=O)N(C)C)cc4n3C2)n1 [Example 4]	> 0.5	0.001 to 0.5	–
O=C(O)c1ccc2c(C3CCCCC3)c3n(c2c1)CC(c1nnn(CCO)n1)=Cc1ccccc1-3 [Example 5, 13-cyclohexyl-6-[2-(2-hydroxyethyl)-2H-tetrazol-5-yl]-7H-indolo[2,1-a][2]benzazepine-10-carboxylic acid]	> 0.5	> 0.5	–
O=C(O)c1ccc2c(C3CCCCC3)c3n(c2c1)CC(c1nnn(CC2CC2)n1)=Cc1ccccc1-3 [Example 6, 13-cyclohexyl-6-[2-(cyclopropylmethyl)-2H-tetrazol-5-yl]-7H-indolo[2,1-a][2]benzazepine-10-carboxylic acid]	> 0.5	> 0.5	–
O=C(O)c1ccc2c(C3CCCCC3)c3n(c2c1)C=C(c1nnn(CC2CC2)n1)Cc1ccccc1-3 [Example 7, 13-cyclohexyl-6-[2-(cyclopropylmethyl)-2H-tetrazol-5-yl]-5H-indolo[2,1-a][2]benzazepine-10-carboxylic acid]	> 0.5	> 0.5	–
O=C(O)c1ccc2c(C3CCCCC3)c3n(c2c1)CC(c1nnn(CC2CCCO2)n1)=Cc1ccccc1-3 (stereo not shown) [Example 8, 13-cyclohexyl-6-[2-[(tetrahydro-2-furanyl)methyl]-2H-tetrazol-5-yl]-5H-indolo[2,1-a][2]benzazepine-10-carboxylic acid]	> 0.5	0.001 to 0.5	–
COC(=O)c1ccc2c(C3CCCCC3)c3n(c2c1)CC(c1ncc(CCC(=O)N2CCOCC2)o1)Cc1cc(OC)ccc1-3 (stereo not shown) [Example 49, Methyl 13-cyclohexyl-3-methoxy-6-(5-(3-(4-morpholinyl)-3-oxopropyl)-1,3-oxazol-2-yl)-6,7-dihydro-5H-indolo[2,1-a][2]benzazepine-10-carboxylate]	–	> 0.5	–
COC(=O)c1ccc2c(C3CCCCC3)c3n(c2c1)CC(c1ncco1)=Cc1cc(OC)ccc1-3 [Example 55, Methyl 13-cyclohexyl-3-methoxy-6-(1,3-oxazol-2-yl)-7H-indolo[2,1-a][2]benzazepine-10-carboxylate]	–	> 0.5	–
